Test results published in a melting point compilation (Tetko et al.; mined from patent text by program, amines drawn as free bases though some values may be those of a salt).

Row | Compound | melting point
1 | COC(=O)C(CCCc1cc(C(C)(C)C)c(O)c(C(C)(C)C)c1)S(=O)(=O)C(CCCc1cc(C(C)(C)C)c(O)c(C(C)(C)C)c1)C(=O)OC (stereo not drawn) | 68 to 69 °C
2 | CC(C)(S)CN1CCN(CCOCCO)CC1 | 38 °C
3 | Cc1ccc(-c2nn(C(C)(C)C(=O)N(C)C)cc2C)c(C)c1 | 110 to 112 °C
4 | CC(C)(CCc1cc2cc(Cl)ccc2n1S(=O)(=O)c1ccccc1)C(=O)O | 242 °C
5 | Cc1c(O)cccc1Br | 89 °C
6 | CN(C)c1ccc(C(=O)C(F)(F)c2ccccc2)cc1 | 115 to 116 °C
7 | Cn1nc(-c2cc([N+](=O)[O-])cc([N+](=O)[O-])c2)cc1O | 230 to 231 °C
8 | COC(=O)C1CC2=C(CO1)C(=O)C=CC2=O (stereo not drawn) | 55 to 58 °C
9 | O=C(CBr)c1ccc(Sc2ccccc2)cc1 | 46 °C
10 | CN1[C@@H]2CC[C@H]1[C@H](CO)[C@H](c1ccc(Cl)c(Cl)c1)C2 | 81 to 86 °C
11 | COC(=O)Nn1c(N)c(C#N)c(C)c1-c1ccccc1 | 178 to 179 °C
12 | CN(C)C(=O)c1cc(O)ccc1O | 144 to 146 °C
13 | COc1nc(C)nc(NC(=O)NS(=O)(=O)c2ccccc2-c2ccccc2)n1 | 190 to 193 °C
14 | O=C(OCc1ccccc1)c1ncn2c1[C@@H]1CCN1C(=O)c1c(Cl)cccc1-2 | 180 to 182 °C
15 | N#CC1CN1C(=O)c1cc2ccccc2o1 (stereo not drawn) | 92 to 94 °C
16 | CCS(=O)(=O)N(C)C1c2cc(F)c(Cl)cc2OC(C)(C)C1O (stereo not drawn) | 188 to 190 °C
17 | CCOC(=O)C(=CNc1ccc(CO)cc1I)C(=O)OCC | 152 to 154 °C
18 | C=COC(=O)N1C[C@@H]2SCCC(c3ccccc3)(c3ccccc3)[C@@H]2C1 (racemic) | 160 °C
19 | CCC1(CC(=O)O)OCC(=O)c2c1[nH]c1cccc(Cl)c21 (stereo not drawn) | 240 to 243 °C
20 | CC(=O)Nc1c(Cl)cc(Br)c(C)c1Cl | 173 to 174 °C
21 | COc1cc(N)c(Cl)cc1C(=O)NCC1CCN(CCCCCCC(=O)c2ccccc2)CC1 | 128 to 130 °C
22 | Cn1c(C(F)(F)F)cc(=O)n(-c2c(F)cc(Cl)c3c2OC(C)(C)CC3)c1=O | 132 to 135 °C
23 | COc1ccc2nc(SC(C#N)c3ncc(C)c(OC)c3C)[nH]c2c1 (stereo not drawn) | 193 to 197 °C
24 | CC(=O)Cc1ccc(Oc2ccc(Cl)cc2)cc1 | 50 to 52 °C
25 | CNC(=O)CC1(CC(=O)O)c2ccccc2C(=O)c2ccccc21 | 238 to 239 °C
26 | O=C(O)CCc1oc(=S)[nH]c1-c1ccc(Cl)cc1 | 196 to 197 °C

Row | Compound | melting point
27 | Cc1cc(COc2ccc(Oc3ccccc3)cc2)on1 | 48 to 51 °C
28 | O=C1OC2CCC1CC2 | 125 to 126 °C
29 | CC(C)(C)NC(=O)c1ccccc1Cc1ccccc1 | 91 to 92 °C
30 | O=C1CCC(N2C(=O)c3ccc(CNC(=O)c4ccc5ccccc5n4)cc3C2=O)C(=O)N1 (stereo not drawn) | 205 to 207 °C
31 | CC(O)c1ccc(-c2ccc(OCc3ccc(Cl)cc3)cc2)cc1 (single isomer, unassigned; (+)) | 165 to 167 °C
32 | COc1ccc([N+](=O)[O-])c(CS(=O)(=O)c2ccccc2)n1 | 147 to 149 °C
33 | CC(C)(C)OC(=O)N1CCN(CC(=O)N2CCC3(CC2)Cn2cc([N+](=O)[O-])nc2O3)CC1 | 211 to 213 °C
34 | CCOC(=O)c1nc2c(Cl)cccc2n(-c2ccc(OC)cc2)c1=O | 128 to 129 °C
35 | NCCCCNC(=O)N1c2ccccc2C=Cc2ccccc21 | 114 to 116 °C
36 | COC(=O)COc1c(Cl)cc(Cl)c(C#N)c1Cl | 110 to 112 °C
37 | O[C@H](COc1cccc2[nH]ccc12)CN1CC=C(c2c[nH]c3ccc(F)cc23)CC1 | 95 to 100 °C
38 | CCOC(=O)COc1cccc(-c2nnc(Nc3cccc(Br)c3)s2)c1 | 175 °C
39 | Cn1cc(-c2cccc(C(F)(F)F)c2)c(=O)c(-c2ccccc2C(F)(F)F)c1 | 135 to 138 °C
40 | Cc1cccc(NCCC#N)c1C | 65.5 to 67 °C
41 | Cn1c(COc2ccc(CC3SC(=O)NC3=O)cc2)nc2ccc(Cl)nc21 (stereo not drawn) | 222 to 223 °C
42 | O=C(/C=C/c1ccccc1I)NCCO | 130 to 132 °C
43 | CCOC(=O)c1cn(C)nc1Nc1ccc(F)cc1[N+](=O)[O-] | 162 °C
44 | COc1ccccc(Br)c1=O | 74 to 75 °C
45 | COc1ccc2c(c1)cc(C(=O)Nc1ccc3c(ccn3C)c1)n2Cc1cccc(C(F)(F)F)c1 | 176 to 177 °C
46 | COC(=O)c1cccc(C(=O)c2[nH]c3cc(Cl)ccc3c2N)c1 | 187 to 189 °C
47 | CC(C)N1Cc2ccccc2P1(=O)c1ccccc1 (stereo not drawn) | 92 to 94 °C
48 | O=C(C(=O)c1cccc(C(=O)C(=O)c2ccc(Oc3ccc(Br)cc3)cc2)c1)c1ccc(Oc2ccc(Br)cc2)cc1 | 120 to 122 °C
49 | O=C(N[C@H]1CCCNC1=O)c1c(F)cccc1F | 190 to 194 °C
50 | O=Cc1ccc2[nH]cc(CCCCN3CC=C(c4ccccc4)CC3)c2c1 | 131 °C
51 | O=c1c2cccnc2n(-c2cccc([N+](=O)[O-])c2)c(=O)n1Cc1ccccc1 | 219 to 220 °C
52 | COC(=O)C1=NN(c2ccccc2)C(C(=O)OC)=NN1c1ccccc1 | 171 to 172 °C

Row | Compound | melting point
53 | CCc1cc(C)cc(CC)c1C(C(N)=O)C(N)=O | 184 to 186 °C
54 | O=C(c1cccs1)c1cnn2c(-c3cccc(NC/C=C/c4ccccc4)c3)ccnc12 | 123 to 125 °C
55 | CCN(CC)c1nc(N)c(SC)c(Cl)n1 | 68 °C
56 | CCn1nc(-c2cccs2)c(C(=O)OCCOC(C)=O)c(Nc2cnccc2C)c1=O | 161 to 162 °C
57 | CCN(CC)C(=O)OC12C(=O)c3ccccc3C1(O)Oc1cc(C(C)C)ccc12 (stereo not drawn) | 101 to 104 °C
58 | CCS(=O)(=O)c1cc(OC)c(OC)c(C(=O)Cl)c1 | 67 to 68 °C
59 | c1ccc(CCC2CCN(Cc3nc4ccccc4[nH]3)CC2)cc1 | 170 °C
60 | O=C1c2ccc(Cl)cc2CC1Cl (stereo not drawn) | 63 to 66 °C
61 | NC(=O)c1ncn2c(=O)n(Cc3ccccc3)nnc12 | 187 to 188 °C
62 | CCc1c(Cl)sc2[nH]c(=O)c(=O)[nH]c12 | 282 to 284 °C
63 | O=C(NNC(=O)c1ccccn1)c1ccccn1 | 224 to 225 °C
64 | Cc1cccc(Cl)c1C(=O)N[C@@H](Cc1ccc(-c2cn(C)c(=O)n(C)c2=O)cc1)C(=O)O | 234 to 236 °C
65 | N#Cc1ccc2nc(-c3cccc(Br)c3)cn2c1 | 205 to 206 °C
66 | CN1CCc2c(-c3ccc([N+](=O)[O-])cc3)cc3c(c2C1)NC(=O)C3=O | > 300 °C
67 | CN(Cc1ccccc1)C(=O)Cn1nc(-c2ccccc2O)nc1-c1ccccc1O | 179 to 180 °C
68 | O=C(C=Cc1cnc2ccccc2c1)NCCCSc1ccncc1 | 154 to 155 °C
69 | CCCCCC(O)C1C(=O)NC(C(=O)SCC(=O)OC)(C(O)C2C=CCCC2)C1(C)O (stereo not drawn) | 75 °C
70 | ClCc1nc2cc(Br)ccc2s1 | 107 °C
71 | C=Cc1cn(-c2c(Cl)cc(C(F)(F)F)cc2Cl)nn1 | 109 to 111 °C
72 | CCc1nn2c(N3CCN(C)CC3)cc(OCCO)nc2c1S(=O)(=O)c1ccccc1 | 153 to 154 °C
73 | CC(C)(C)OC(=O)N[C@H](Cc1ccc(Cl)c(Cl)c1)C(=O)N1CCC[C@H]1C(=O)NC1CCc2nc(N)sc2C1 (stereo partly drawn) | 116 to 119 °C
74 | O=C(Nc1cccnc1)N1CCN(c2cc(-c3ccccc3F)ncn2)CC1 | 178 to 179 °C
75 | CCCOC(=O)Nc1nc(=O)n(C2OC(C)C(O)C2O)cc1F (stereo not drawn) | 125 to 126 °C
76 | CCOc1ccc(OCC(F)(F)F)cc1C(=O)O | 101 to 103 °C
77 | O=C(CSCc1ccccc1)CS(=O)(=O)C(c1ccc(Cl)cc1)c1ccc(Cl)cc1 | 108 to 110 °C
78 | Cc1nc(N2CCN(Cc3ccccc3C(F)(F)F)C2=O)sc1C(=O)NCc1ccccc1 | 138 to 140 °C

Row | Compound | melting point
79 | COC(=O)c1ccc(S(C)(=O)=O)c(COC(C)=O)c1Cl | 165 to 168 °C
80 | CCn1c(C)nc2cc(Sc3cccc4cnccc34)c([N+](=O)[O-])cc21 | 236 to 242 °C
81 | Nc1ccc(C(O)c2ccccn2)cc1 (stereo not drawn) | 139 to 140 °C
82 | COc1ccc(C2=NCc3nncn3-c3ccc(Cl)cc32)cc1 | 216 to 217 °C
83 | O=c1[nH]c(=O)n(CCCCBr)c2cc([N+](=O)[O-])ccc12 | 202 to 203 °C
84 | CCCNC(=O)c1ccccc1C(c1ccc(O)cc1)c1ccc(O)cc1 | 202 °C
85 | O=C1c2cc3ccccc3c(-c3ccccc3)c2C(=O)N1C1CC1 | 198 °C
86 | N#Cc1cc(C2CCCCC2)c(C(=O)O)cn1 | 225 to 230 °C
87 | CCc1oc2ccccc2c1C(=O)c1c(Br)cc(Br)c(O)c1Br | 153 to 154 °C
88 | CCn1c(CC(=O)NOCc2ccccc2)nc2cc(F)c(N3CCN(C)CC3)cc21 | 165 to 168 °C
89 | Cc1ccnc(P(=O)(O)O)c1 | 273 °C
90 | Cc1cc(N(C)C)ccc1C=Nc1cc(Cl)c(N=CN(C)C)c(Cl)c1 | 64 to 65 °C
91 | CC1(C)Cc2ccccc2C1c1cncnc1S (stereo not drawn) | 184 to 186 °C
92 | COC(=O)c1ccc(-c2ccc(-c3ccccc3)c(-c3ccc4c(c3)SCCC4(C)C)c2)cc1 | 172 °C
93 | Cc1c(OCC(F)(F)F)ccnc1CS(=O)c1nc2ccccc2n1S(=O)(=O)c1ccc(OCC(=O)Nc2ccccn2)cc1 (stereo not drawn) | 78 to 81 °C
94 | OC1(c2ccc(Br)cc2)CCN(CCCc2noc3cc(F)ccc23)CC1 | 138 to 145 °C
95 | CC(=O)OCc1ccc(OCC(OC(C)=O)c2cc3cc(C(C)C)ccc3o2)cc1 (stereo not drawn) | 74 to 76 °C
96 | CSc1ccc(C=C2C=CC=C2)cc1 | 105 to 106 °C
97 | Cc1cnc2c(NC(=O)c3c(Cl)cccc3Cl)ccc(C)c2c1N1CCN(C)C1=O | > 300 °C
98 | Nc1cc(C(F)(F)F)ccc1C=C1NC(=S)NC1=O | 240 °C
99 | CCc1oc(C2CCCCC2)nc1CC(=O)O | 101 to 102 °C
100 | CC(=O)Nc1cc(Cl)c([N+](=O)[O-])cc1NC(C)=O | 232 °C
101 | O=[N+]([O-])c1ccc(C=CS(=O)(=O)N=C(Cl)c2ccccc2)cc1 | 168 to 175 °C
102 | C1=Cc2ccccc2C=CN1 | 186 to 190 °C
103 | Cc1ccc(Nc2ncccc2O)cc1 | 134 to 135 °C
